Read-outs that look alike come from different tables or passages of the source.
What was measured:
KB cells = assay: Cytostatic activity on KB cells; assay type: cell-based; settings: Homo sapiens, read-out: IC50 KB
Procedure: (§1) All cells were grown in Eagle's minimum essential medium supplemented with 10% fetal bovine serum with the exception of HL-60 and K562-4 cells which were grown in RPMI 1640 medium supplemented with 10% fetal bovine serum. The KB and MH1 C1 cells, from a human nasopharyngeal carcinoma and rat hepatoma, respectively, were from American Type Culture Collection. The ChaGo cells, a human lung carcinoma, was generously provided by Dr. A. H. Tashjian. The human promyeloblastic leukemia cells, K562-4 were kindly supplied by Dr. Bismarck Lozzio. HL-60 cells, a human promyelocytic leukemia, and P388 cells, a mouse leukemia, were obtained from Dr. Y.-C. Cheng. The 77 cells were put into culture by us by excising the 7777, Morris hepatoma from a rat graciously supplied by the late Dr. H. P. Morris.
(§2) Cells were transferred or removed from monolayers for counting after a one or two minute incubation with 0.02% sodium ethylenediamine tetraacetate in phosphate-buffered saline to dislodge the cells. Flasks were seeded at a density of 1×10^3 cells per cm^2 or 2×10^4 per milliliter for suspension cultures. The HL-60 and K562-4 suspension cultures were used about 24 hours after seeding. The compounds to be tested were diluted to various concentrations and added to the monolayer cultures. All of the test compounds were dissolved in 10% dimethyl sulfoxide (DMSO) at concentrations that would give a final DMSO concentration of 0.1%. Control flasks contained 0.1% DMSO. Control cell replication was followed until approximately three doublings had occurred, and then all of the treated cells were counted.
(§3) The KB cells represented cells with low alkyl cleavage activity (less than the detectable level of 0.1-0.2 units per milligram protein by our assay procedure) and the 77 cells represented cells similar to normal cells with relatively high alkyl cleavage activity (1.6 units per milligram of protein). Our value for the cleavage activity of cultured 77 cells agrees well with the value of 1.4 units per milligram of protein reported by Soodsma et al, Cancer Res. 30, 309 (1970), for freshly excised 7777 Morris hepatoma tissue. In further confirmation of our assay procedure, we obtained a value of 12.6±4.1 units per milligram of protein in excised rat liver compared to 7.3 units per milligram of protein in rat liver measured by Soodsma et al.

[1] = test system: HL60 human leukemia cell line; assay: HL60 cell growth inhibition (trypan blue, 48 h); assay type: cell-based; settings: Homo sapiens, HL-60, 48 h, HL60, 48 hours; read-out: ID50 (the source's name)
Procedure: A number of the compounds disclosed herein have been tested against the HL60 human leukemia cell line to assess their cytotoxic potential. These analogs were investigated in parallel with ET-18-OMe which was used as the reference compound. The methodologies used in this investigation were the same as described in A. Noseda, M. Berens, C. Piantadosi, and E. J. Modest, Lipids 22, 878-883, 1987. In brief, HL60 cells at a concentration of […] were incubated in wells with one milliliter medium with the experimental drug in parallel with the same concentration of cells with ET-18-OMe (standard) or EtOH (control). After 48 hours of incubation the cells were counted using the trypan blue dye exclusion technique to determine the effect of the drug on cell growth. The experimental drug and ET-18-OMe were tested at the same concentrations, e.g., 10, 5, 2.5 and 1.25 μM.

77 cells = assay: Cytostatic activity on 77 cells; assay type: cell-based, rat; settings: for IC50: 77 cells, after controls doubled three times; for 77/KB: ratio of IC50 values ± standard error of the quotient
Procedure: as §1, §2, §3

Protein Kinase C = Protein Kinase C activity (32P incorporation into histone); assay type: biochemical, human (HL-60 cells)
Procedure: PKC was prepared and assayed as described previously. See Daniel, L. W. et al., Biochem. Biophys. Res. Comm. 151, 291 (1988). In brief, HL-60 cells were grown in 75 milliliter flasks, harvested and washed with ice-cold normal saline. After centrifugation (600×g, 5 minutes, 4° Centigrade), the cell pellet was resuspended (20 mM Tris-HCl, pH 7.5, 2 mM EDTA, 10 mM EGTA, 50 mM 2-mercaptoethanol, 2 mM phenylmethylsulfonyl fluoride) and sonicated for 20 s with a stepped microprobe sonciator. Unbroken cells were removed by centrifugation as above and the supernatant centrifuged (65,000×g, 90 minutes, 4° Centigrade). The supernatant from this step (cytosol) was then fractionated on a 1×8 cm DEAE-Sephacel column after addition to sucrose to a final concentration of 10%. After equilibrating the column (20 mM Tris, pH 7.5, 0.2 mM EDTA, 0.2 mM EGTA, 50 mM 2-mercaptoethanol, 10% sucrose), the sample was loaded and unbound material was washed through with 40 milliliters of the equilibrating buffer. The PKC was eluted by a gradient from 0-0.5M NaCl in the buffer described above. Fractions of 1 milliliter were collected at 25 milliliters per hour and 0.05 milliliter aliquots assayed for PKC activity as described below. The fractions with the highest activity were pooled and used in further experiments.
The assays were done at pH 7.5 in a total volume of 0.25 milliliter and all tubes contained 25 mM Tris, 10 mM MgCl2, 40 μg per milliliter histone, 10 μM ATP (including 1 μCi of [gamma-^32 P]-ATP), 0.1 mM CaCl2, 20 μg per milliliter phosphatidylserine, 0.05 milliliter of the PKC preparation and 2.5 μM of oleoylacetylglycerol (OAG). Enzymatic activity was determined as the incorporation of ^32 P from [gamma-^32 P]-ATP) into histone in the presence of Ca^2+, phosphatidylserine, and OAG. Reactions were initiated by the addition of the enzyme preparation and halted after 20 minutes at 30° Centigrade by the addition of 0.05 milliliters of bovine serum albumin (10 milligrams per milliliter) and 1 milliliter 25% ice-cold trichloroacetic acid. The tubes were kept on ice and then filtered in a millipore vacuum box using Millipore® HA filters and washed with 25% trichloroacetic acid. The radioactivity bound to the filters was determined by scintillation spectrometry in 5 milliliters Budget Solve®. […] The analog to be tested was dissolved in ethanol, and added directly into the reaction mixture before the addition of PKC. As a control, 0.1% ethanol was included in the samples with the enzyme but with no inhibitor.

[2] = KB cells, after controls doubled three times

Compound | IC50 (KB cells; [2]) | Percent Protein Kinase C Activity Retained (Protein Kinase C; 1.25 μM) | Percent Protein Kinase C Activity Retained (Protein Kinase C; 2.5 μM) | Percent Protein Kinase C Activity Retained (Protein Kinase C; 5.0 μM) | Percent Protein Kinase C Activity Retained (Protein Kinase C; 10.0 μM) | Percent Protein Kinase C Activity Retained (Protein Kinase C; 20.0 μM) | Percent Protein Kinase C Activity Retained (Protein Kinase C; 40.0 μM) | also measured
C[N+](C)(CCO)CCOc1ccccc1 [IX, 2-Phenoxy-N,N-dimethyl-N-β-hydroxyethyl-1-ethyl ammonium iodide] |  |  |  |  |  |  |  | IC50 (KB cells; KB): > 100000 nM
CCCCCCCCCCCCCCCCOCC(C[N+]1(C)CCC(O)CC1)OCC (racemic) [CJM PIPER, (±)-1-methyl-1-(3-hexadecyloxy-2-ethoxypropyl)-4-hydroxy piperidinium iodide] |  |  |  |  |  |  |  | IC50 [1]: 2800 nM
CCCCCCCCCCCCCCCCOCC(C[N+](C)(C)CCO)OC (stereo not shown) [XII] | 260 ± 50 nM |  |  |  |  |  |  | IC50 (77 cells): 1270 ± 410 nM; 77/KB (77 cells): 4.9 ± 1.84
COC(COc1cccc2ccccc12)C[N+](C)(C)CCO (stereo not shown) [E] |  | 99% | 99% | 83% | 89% | 87% | 90% | 
CCCCCCCCCCCCCCOCC[N+](C)(C)CCO.[I-] [IV, 2-tetradecyloxy-N,N-dimethyl-N-β-hydroxyethyl-1-ethyl ammonium iodide] | 320 ± 120 nM |  |  |  |  |  |  | IC50 (77 cells): 1530 ± 230 nM; 77/KB (77 cells): 4.8 ± 1.94
CCCCCCCCCCCCCCCCOCCC[n+]1ccccc1 [KLM 70, 1-(3-hexadecyloxypropyl) pyridium bromide] |  |  |  |  |  |  |  | IC50 [1]: 800 nM
CCCCCCCCCCCCCCCCSCC(C[N+](C)(C)CCCO)OCC (stereo not shown) [C] |  | 78% | 64% | 67% | 60% | 59% | 37% | 
CCCCCCCCCCCCCCCCOCCC[N+](C)(C)C [KLM 69, 3-hexadecyloxy-N,N,N-trimethyl-1-propyl ammonium bromide] |  |  |  |  |  |  |  | IC50 [1]: 1600 nM
CCCCCCCCCCCCCCCCCCSCC(C[N+](C)(C)CCCO)OC (racemic) [CJM 44, (±)-3-octadecylthio-2-methoxy-N,N-dimethyl-N-gamma-hydroxypropyl-1-propyl ammonium bromide] |  |  |  |  |  |  |  | IC50 [1]: 3400 nM
CCCCCCCCCCCCOCC[N+](C)(C)CCO.[I-] [III, 2-dodecyloxy-N,N-dimethyl-N-β-hydroxyethyl-1-ethyl ammonium iodide] | 780 ± 30 nM |  |  |  |  |  |  | IC50 (77 cells): 4730 ± 870 nM; 77/KB (77 cells): 6.1 ± 1.15
CCCCCCCCCCCCCCCCCC1OCC(C[N+](C)(C)CCCO)O1 (stereo not shown) [G] |  | 44% | 43% | 26% | 12% | 9% | 9% | 
CCCCCCCCCCCCCCCCCC1OCC(C[N+](C)(C)CCCO)O1 (racemic) [CJM 60, (±)-N-(2-heptadecyl-1,3-dioxolan-4-yl)methyl-N,N-dimethyl-gamma-hydroxypropyl ammonium bromide] |  |  |  |  |  |  |  | IC50 [1]: 6500 nM
CCCCCCCCCCCCCCCCSCC(C[N+](C)(C)CCO)OC (stereo not shown) [A] |  | 97% | 90% | 73% | 60% | 54% | 42% | 
CCCCCCCCCCCCCCCCSCC(C[N+](C)(C)C)OC (stereo not shown) [D] |  | 112% | 88% | 81% | 74% | 54% | 29% | 

Second part, led by results:

IC50 (KB cells; [2]) | Percent Protein Kinase C Activity Retained (Protein Kinase C; 1.25 μM) | Percent Protein Kinase C Activity Retained (Protein Kinase C; 2.5 μM) | Percent Protein Kinase C Activity Retained (Protein Kinase C; 5.0 μM) | Percent Protein Kinase C Activity Retained (Protein Kinase C; 10.0 μM) | Percent Protein Kinase C Activity Retained (Protein Kinase C; 20.0 μM) | Percent Protein Kinase C Activity Retained (Protein Kinase C; 40.0 μM) | Compound | also measured
 | 88% | 84% | 87% | 88% | 96% | 87% | CC1(C)OCC(C[N+](C)(C)CCO)O1 (stereo not shown) [F] | 
330 ± 120 nM |  |  |  |  |  |  | CCCCCCCCCCCCCCCCOCC[N+](C)(C)CCO.[I-] [V, 2-hexadecyloxy-N,N-dimethyl-N-β-hydroxyethyl-1-ethyl ammonium iodide] | IC50 (77 cells): 1420 ± 500 nM; 77/KB (77 cells): 4.3 ± 2.15
 | 107% | 95% | 87% | 64% | 42% | 29% | CCCCCCCCCCCCCCCCOCC(C[N+](C)(C)CCO)OC (stereo not shown) [H] | 
16000 nM |  |  |  |  |  |  | CCCCCCCCCCCCCCCCCC(=O)OCC[N+](C)(C)CCO [II, 2-octadecanoyloxy-N,N-dimethyl-N-β-hydroxyethyl-1-ethyl ammonium iodide] | 
440 ± 110 nM |  |  |  |  |  |  | CCCCCCCCCCCCCCCCOCC[N+](C)(C)CCCCO.[I-] [VII, 2-hexadecyloxy-N,N-dimethyl-N-delta-hydroxybutyl-1-ethyl ammonium iodide] | IC50 (77 cells): 2270 ± 930 nM; 77/KB (77 cells): 5.2 ± 2.50
